The values that follow come from paper PMC9490236, “Accurate de novo design of membrane-traversing macrocycles” (Cell, 2022).

A short description of series [1]: in vitro. Conditions: PAMPA, PAMPA_Papp_Avg.
The conditions of series [2]: PAMPA. For orientation: PAMPA measures passive passage across an artificial lipid membrane.

Molecules are shown by their SMILES. Where a SMILES comes first, the peptide text is derived from it. [ ]: non-standard residue; d: D form. NMeF = CN[C@@H](Cc1ccccc1)C(=O)O; dNMeF = CN[C@H](Cc1ccccc1)C(=O)O; NMeL = CN[C@@H](CC(C)C)C(=O)O; dNMeL = CN[C@H](CC(C)C)C(=O)O; dNMeV = CN[C@@H](C(=O)O)C(C)C; NMeV = CN[C@H](C(=O)O)C(C)C; NMeA = CN[C@@H](C)C(=O)O; dNMeA = CN[C@H](C)C(=O)O; Sar = CNCC(=O)O

What is called Papp is the rate of passage across a membrane or cell layer, normalised by area and donor concentration. Consider `CC(C)C[C@H]1NC(=O)[C@@H]2CCCN2C(=O)[C@@H]2CCCN2C(=O)[C@@H](C)NC(=O)[C@@H](Cc2ccccc2)N(C)C(=O)[C@H]2CCCN2C1=O` [Design D6.4, DPRO *DPHE DALA PRO PRO DLEU] (cyclo(PP[dL][dP][dNMeF][dA])), for which the Papp in series [1] stood at 13.9 ×10⁻⁶ cm/s. In series [2], this compound returned a PAMPA_R1 of 1.85e-05 cm/s and a PAMPA_R3 of 1.58e-05 cm/s.
For `CC(C)[C@@H]1NC(=O)[C@@H]2CCCN2C(=O)[C@@H]2CCCN2C(=O)[C@@H](Cc2ccccc2)NC(=O)[C@@H]2CCCN2C(=O)[C@@H](Cc2ccccc2)NC1=O` [Design D6.5, PRO PRO VAL DPHE PRO DPHE] (cyclo(PPV[dF]P[dF])) the same measures were 2.41 ×10⁻⁶ cm/s, 3.17e-06 cm/s and 3.12e-06 cm/s.
In series [1], `CC(C)[C@H]1C(=O)N[C@H](Cc2ccccc2)C(=O)N2CCC[C@H]2C(=O)N[C@H](Cc2ccccc2)C(=O)N2CCC[C@H]2C(=O)N2CCC[C@H]2C(=O)N1C` [Design D6.6, PRO PRO *VAL DPHE PRO DPHE] (cyclo([NMeV][dF]P[dF]PP)) gave a Papp of 3.64 ×10⁻⁶ cm/s. In addition, in series [2], the PAMPA_R1 came out at 2.64e-06 cm/s and the PAMPA_R3 came out at 6.73e-06 cm/s.
On to `CC(C)[C@H]1NC(=O)[C@@H]2CCCN2C(=O)[C@@H](C)NC(=O)[C@@H](Cc2ccccc2)NC(=O)[C@@H]2CCCN2C(=O)[C@H](Cc2ccccc2)NC1=O` [Design D6.7, DPHE DALA PRO DVAL PHE PRO] (cyclo(FP[dF][dA]P[dV])), for which the Papp in series [1] amounted to 0.424 ×10⁻⁶ cm/s. Also, in series [2], the PAMPA_R1 is 6.27e-07 cm/s and the PAMPA_R3 came to 3.67e-07 cm/s.
In the case of `CC(C)C[C@H]1C(=O)N2CCC[C@@H]2C(=O)N[C@@H](Cc2ccccc2)C(=O)N2CCC[C@H]2C(=O)N(C)[C@H](C(C)C)C(=O)N[C@H](Cc2ccccc2)C(=O)N1C` [Design D6.10, *DVAL DPHE *LEU DPRO PHE PRO] (cyclo(FP[dNMeV][dF][NMeL][dP])), in series [1], the Papp stood at 11.6 ×10⁻⁶ cm/s. In series [2], the PAMPA_R1 was determined as 1.23e-05 cm/s and the PAMPA_R3 is 1.13e-05 cm/s.
For `CC[C@H](C)[C@@H]1NC(=O)[C@H]2CCCN2C(=O)[C@@H]2CCCN2C(=O)[C@H](CC(C)C)NC(=O)[C@@H](C(C)C)NC(=O)[C@@H](CC(C)C)N(C)C(=O)[C@@H]2CCCN2C1=O` [Design D7.1, PRO *DLEU DVAL LEU PRO DPRO ILE] (cyclo(IP[dNMeL][dV]LP[dP])) the same measures were 2.93 ×10⁻⁶ cm/s, 2.76e-06 cm/s and 3.53e-06 cm/s.
In turn, `CC[C@H](C)[C@@H]1NC(=O)[C@H](CC(C)C)N(C)C(=O)[C@H]2CCCN2C(=O)[C@@H](CC(C)C)NC(=O)[C@H](CC(C)C)NC(=O)[C@@H](CC(C)C)N(C)C(=O)[C@@H]2CCCN2C1=O` [Design D7.2, DLEU DPRO *LEU ILE PRO *DLEU LEU] (cyclo(IP[dNMeL]L[dL][dP][NMeL])) came in with a Papp in series [1] of 11.6 ×10⁻⁶ cm/s. In series [2], this compound registered a PAMPA_R1 of 1.48e-05 cm/s.
Compound `CC(C)C[C@@H]1NC(=O)[C@@H](CC(C)C)NC(=O)[C@H]2CCCN2C(=O)[C@@H]2CCCN2C(=O)[C@@H](CC(C)C)NC(=O)[C@@H](CC(C)C)N(C)C(=O)[C@@H]2CCCN2C1=O` [Design D7.5, LEU PRO *DLEU DLEU PRO DPRO DLEU] (cyclo(LP[dNMeL][dL]P[dP][dL])) showed a Papp in series [1] of 6.64 ×10⁻⁶ cm/s. Besides, in series [2], the PAMPA_R1 was 6.72e-06 cm/s.
In turn, `CC(C)C[C@@H]1NC(=O)[C@@H]2CCCN2C(=O)[C@H]2CCCN2C(=O)[C@H](CC(C)C)NC(=O)[C@H](C)N(C)C(=O)[C@H]2CCCN2C(=O)[C@@H](CC(C)C)NC1=O` [Design D7.6, DLEU DPRO *ALA LEU DPRO PRO LEU] (cyclo(L[dL][dP][NMeA]L[dP]P)) had a Papp in series [1] of 3.62 ×10⁻⁶ cm/s. Further, in series [2], the PAMPA_R1 is 2.16e-06 cm/s and the PAMPA_R3 came to 6.12e-06 cm/s.
For `CC[C@H](C)[C@@H]1NC(=O)[C@H](Cc2ccccc2)N(C)C(=O)[C@H]2CCCN2C(=O)[C@H]([C@@H](C)CC)NC(=O)[C@H](C(C)C)NC(=O)[C@@H](C)NC(=O)[C@H]2CCCN2C1=O` [Design D7.9, VAL ILE DPRO *PHE ILE DPRO DALA] (cyclo(I[dP][NMeF]I[dP][dA]V)), the Papp in series [1] worked out at 7.09 ×10⁻⁶ cm/s. In series [2], this compound showed a PAMPA_R1 of 6.71e-06 cm/s and a PAMPA_R3 of 6.53e-06 cm/s.
As for `CC(C)C[C@@H]1C(=O)N[C@H](CC(C)C)C(=O)N2CCC[C@@H]2C(=O)N2CCC[C@H]2C(=O)N(C)[C@H](CC(C)C)C(=O)N[C@H](CC(C)C)C(=O)N2CCC[C@@H]2C(=O)N2CCC[C@H]2C(=O)N1C` [Design D8.4, DPRO PRO *DLEU DLEU DPRO PRO *DLEU DLEU] (cyclo([dNMeL][dL][dP]P[dNMeL][dL][dP]P)), the Papp in series [1] was 0.136 ×10⁻⁶ cm/s. In series [2], the PAMPA_R1 is 1.49E-07 and the PAMPA_R3 is given as 1.12E-07.
For the compound `CC(C)C[C@@H]1NC(=O)[C@@H](CC(C)C)N(C)C(=O)[C@@H](CC(C)C)N(C)C(=O)[C@@H](CC(C)C)N(C)C(=O)[C@H](CC(C)C)NC(=O)[C@@H]2CCCN2C(=O)[C@H]2CCCN2C(=O)[C@H](Cc2ccccc2)NC1=O` [Design D8.7, PHE DPRO PRO LEU *DLEU *DLEU *DLEU LEU] (cyclo(L[dNMeL][dNMeL][dNMeL]LF[dP]P)), the Papp in series [1] turned out to be 1.27 ×10⁻⁶ cm/s. In series [2], the PAMPA_R1 is listed as 1.94E-06 and the PAMPA_R3 is given as 8.74E-07.
For the compound `CC[C@H](C)[C@@H]1NC(=O)[C@@H]2CCCN2C(=O)[C@H]2CCCN2C(=O)[C@@H](CC(C)C)NC(=O)[C@@H](CC(C)C)N(C)C(=O)[C@@H]2CCCN2C(=O)[C@H](Cc2ccccc2)N(C)C(=O)[C@@H](Cc2ccccc2)NC1=O` [Design D8.14, PRO ILE DPHE*PHE PRO *DLEU DLEU DPRO] (cyclo(I[dF][NMeF]P[dNMeL][dL][dP]P)), in series [1], the Papp was determined as 0.971 ×10⁻⁶ cm/s. For the same compound, in series [2], the PAMPA_R1 is recorded as 1.14E-06 and the PAMPA_R3 is recorded as 7.14E-07.
`CC[C@H](C)[C@@H]1NC(=O)[C@@H]2CCCN2C(=O)CN(C)C(=O)[C@@H](CC(C)C)NC(=O)[C@@H](CC(C)C)N(C)C(=O)[C@@H]2CCCN2C(=O)[C@H](Cc2ccccc2)N(C)C(=O)[C@@H](Cc2ccccc2)NC1=O` [Design D8.15, PRO ILE DPHE*PHE PRO *DLEU DLEU *GLY] (cyclo(I[dF][NMeF]P[dNMeL][dL][Sar]P)) had a Papp in series [1] of 0.768 ×10⁻⁶ cm/s. For the same compound, in series [2], the PAMPA_R1 is 8.94E-07 and the PAMPA_R3 came to 9.27E-07.
`CC[C@H](C)[C@@H]1NC(=O)[C@@H](C(C)C)NC(=O)[C@H](CC(C)C)N(C)C(=O)[C@H]2CCCN2C(=O)[C@H]2CCCN2C(=O)[C@H](C(C)C)NC(=O)[C@@H](CC(C)C)NC(=O)[C@H]2CCCN2C1=O` [Design D8.16, DPRO DLEU VAL DPRO DPRO *LEU DVAL ILE] (cyclo(I[dP][dL]V[dP][dP][NMeL][dV])) registered a Papp in series [1] of 2.16 ×10⁻⁶ cm/s. In series [2], this compound had a PAMPA_R1 of 2.86E-06 and a PAMPA_R3 of 1.69E-06.
In series [1], `CC[C@H](C)[C@@H]1NC(=O)[C@@H](C)N(C)C(=O)[C@H]2CCCN2C(=O)[C@H]2CCCN2C(=O)[C@H](Cc2ccccc2)NC(=O)[C@@H](CC(C)C)NC(=O)[C@@H](CC(C)C)N(C)C(=O)[C@@H]2CCCN2C1=O` [Design D8.17, PRO *DLEU DLEU PHE DPRO DPRO *DALA ILE] (cyclo(F[dP][dP][dNMeA]IP[dNMeL][dL])) came in with a Papp of 0.72 ×10⁻⁶ cm/s. In series [2], the PAMPA_R1 was found to be 5.94E-07 and the PAMPA_R3 was determined as 8.83E-07.
For `CC[C@@H](C)[C@H]1NC(=O)[C@@H]2CCCN2C(=O)[C@@H](CC(C)C)N(C)C(=O)[C@@H](C(C)C)NC(=O)[C@@H]2CCCN2C(=O)[C@@H](CC(C)C)N(C)C(=O)[C@H](C)N(C)C(=O)[C@@H](C)NC1=O` [Design D8.18, DILE DALA *ALA *DLEU PRO DVAL *DLEU PRO] (cyclo([NMeA][dNMeL]P[dV][dNMeL]P[dI][dA])) the same measures were 1.04 ×10⁻⁶ cm/s, 1.31E-06 and 9.35E-07.
`CC(C)C[C@H]1NC(=O)[C@H]2CCCN2C(=O)[C@H](CC(C)C)N(C)C(=O)[C@@H](C)N(C)C(=O)[C@@H](Cc2ccccc2)NC(=O)[C@@H](C(C)C)NC(=O)[C@H]2CCCN2C(=O)[C@@H](CC(C)C)NC1=O` [Design D8.19, DPHE *DALA *LEU DPRO DLEU DLEU DPRO DVAL] (cyclo([NMeL][dP][dL][dL][dP][dV][dF][dNMeA])) registered a Papp in series [1] of 2.88 ×10⁻⁶ cm/s. In series [2], this compound registered a PAMPA_R1 of 3.45E-06 and a PAMPA_R3 of 2.33E-06.
On to `CC(C)C[C@@H]1C(=O)N(C)[C@H](Cc2ccccc2)C(=O)N(C)[C@@H](CC(C)C)C(=O)N[C@H](C(C)C)C(=O)N[C@H](C)C(=O)N2CCC[C@@H]2C(=O)N2CCC[C@H]2C(=O)N[C@H](C)C(=O)N1C` [Design D8.20, PRO DALA *DLEU *DPHE *LEU DVAL DALA DPRO] (cyclo([dA][dNMeL][dNMeF][NMeL][dV][dA][dP]P)), for which the Papp in series [1] stood at 1.08 ×10⁻⁶ cm/s. For the same compound, in series [2], the PAMPA_R1 came out at 1.00E-06 and the PAMPA_R3 was determined as 1.46E-06.
As for `CC(C)C[C@@H]1C(=O)N[C@@H](C(C)C)C(=O)N[C@@H](C)C(=O)N2CCC[C@H]2C(=O)N2CCC[C@@H]2C(=O)N[C@@H](C(C)C)C(=O)N[C@@H](C)C(=O)N(C)[C@@H](CC(C)C)C(=O)N1C` [Design D8.22, ALA PRO DPRO VAL ALA *LEU *DLEU VAL] (cyclo(A[NMeL][dNMeL]VAP[dP]V)), the Papp in series [1] was 0.215 ×10⁻⁶ cm/s. In series [2], the PAMPA_R1 is reported as 2.34E-07 and the PAMPA_R3 worked out at 1.57E-07.
For `CC(C)C[C@@H]1C(=O)N(C)[C@H](CC(C)C)C(=O)N[C@H](CC(C)C)C(=O)N[C@@H](C(C)C)C(=O)N2CCC[C@@H]2C(=O)N2CCC[C@H]2C(=O)N[C@H](CC(C)C)C(=O)N[C@@H](C(C)C)C(=O)N1C` [Design D8.23, DLEU VAL *DLEU *DLEU DLEU VAL DPRO PRO] (cyclo([dL]V[dNMeL][dNMeL][dL]V[dP]P)) the same measures were 1.28 ×10⁻⁶ cm/s, 1.18E-06 and 1.40E-06.
`CC(C)C[C@@H]1C(=O)N[C@H](C)C(=O)N(C)[C@H](CC(C)C)C(=O)N2CCC[C@@H]2C(=O)N[C@H](CC(C)C)C(=O)N[C@@H](C)C(=O)N[C@H](CC(C)C)C(=O)N2CCC[C@@H]2C(=O)N1C` [Design D8.25, DLEU DPRO *DLEU DALA *DLEU DPRO DLEU ALA] (cyclo(A[dL][dP][dNMeL][dA][dNMeL][dP][dL])) came in with a Papp in series [1] of 0.824 ×10⁻⁶ cm/s. In series [2], this compound had a PAMPA_R1 of 7.42E-07 and a PAMPA_R3 of 9.32E-07.
